Measured values: ChEMBL document CHEMBL4229332, “Novel multi-target azinesulfonamides of cyclic amine derivatives as potential antipsychotics with pro-social and pro-cognitive effects” (Eur J Med Chem, 2018)
Activity calls are given as the source filed them. No cut-off for these calls is given here.

Legend:
[1] = system: Rattus norvegicus; experiment: Effect on failure incidence during conditioned avoidance response test in Sprague-Dawley rat at 0.3 mg/kg, ip administered 60 mins prior to testing; assay type: ADME, organism-based; conditions: in vivo, 1 h
[2] = species on record: Rattus norvegicus; experiment: animal or person; conditions: Sprague-Dawley, ip, read-out: MED
Description: Reversal of ketamine-induced working social withdrawal in ip dosed Sprague-Dawley rat pretreated for 60 mins followed by ketamine administration

[3] = species on record: Rattus norvegicus; experiment: animal or person; conditions: Sprague-Dawley, ip, read-out: MED; remark: listed apart in the source
Description: Antipsychotic activity in ip dosed Sprague-Dawley rat assessed as suppression of avoidance behavior by avoiding foot shock administered 60 mins prior to test by conditioned avoidance response test

[4] = target: T1, 5-hydroxytryptamine receptor 2A (Homo sapiens, UniProt P28223); experiment: biochemical; assay type: cell-based, CHO-K1
[5] = target: T2, 5-hydroxytryptamine receptor 7 (Homo sapiens, UniProt P34969); experiment: Antagonist activity at human 5-HT7R expressed in CHO-K1 cells assessed as inhibition of serotonin-induced cAMP accumulation at 10^-6 M after 30 mins by chemiluminescence-based assay; assay type: functional, cell-based
[6] = target: T3, 5-hydroxytryptamine receptor 6 (Homo sapiens, UniProt P50406); experiment: Antagonist activity at human 5-HT6R expressed in CHO-K1 cells assessed as inhibition of serotonin-induced cAMP accumulation at 10^-6 M after 30 mins by chemiluminescence-based assay; assay type: functional, cell-based
[7] = Drug level in Wistar rat plasma at 3 mg/kg, ip measured after 15 mins by LC-MS/MS analysis; assay type: ADME, organism-based
[8] = Ratio of drug level in brain to plasma in Wistar rat at 3 mg/kg, ip measured after 15 mins by LC-MS/MS analysis; assay type: ADME, organism-based; conditions: read-out: BPR
[9] = target: T4, 5-hydroxytryptamine receptor 1A (Homo sapiens, UniProt P08908); experiment: biochemical
T4 sequence (P08908 whole entry): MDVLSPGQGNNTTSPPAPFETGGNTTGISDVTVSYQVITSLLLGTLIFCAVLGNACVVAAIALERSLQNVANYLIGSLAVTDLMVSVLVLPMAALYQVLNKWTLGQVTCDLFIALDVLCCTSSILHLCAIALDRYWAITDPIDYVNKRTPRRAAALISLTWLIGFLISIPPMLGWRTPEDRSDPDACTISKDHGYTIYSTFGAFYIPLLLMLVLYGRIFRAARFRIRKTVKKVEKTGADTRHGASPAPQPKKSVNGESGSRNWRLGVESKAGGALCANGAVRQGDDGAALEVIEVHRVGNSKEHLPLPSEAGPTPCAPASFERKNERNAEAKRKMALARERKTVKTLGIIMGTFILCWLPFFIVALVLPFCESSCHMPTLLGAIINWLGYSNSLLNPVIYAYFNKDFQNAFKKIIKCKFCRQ
Description: Displacement of [3H]-8-OH-DPAT from human 5-HT1AR expressed in HEK293 cell membranes after 1 hr by microbeta counting method

[10] = Ratio of drug level in brain to plasma in Wistar rat at 3 mg/kg, ip measured after 30 mins by LC-MS/MS analysis; assay type: ADME, organism-based; conditions: read-out: BPR
[11] = target: T1, 5-hydroxytryptamine receptor 2A; experiment: Antagonist activity at human 5-HT2AR expressed in HEK293 cells assessed as inhibition of serotonin-induced calcium flux at 10^-6 M after 30 mins by HTRF method; assay type: functional, cell-based
[12] = system: Rattus norvegicus; experiment: Antipsychotic activity in Sprague-Dawley rat assessed as reduction in PCP-induced hyper-locomotion at 1 to 3 mg/kg, ip pretreated for 60 mins followed by PCP addition measured for 30 mins starting 15 min after rat reintroduction to auto-tracks; assay type: functional, organism-based
[13] = Ratio of drug level in brain to plasma in Wistar rat at 3 mg/kg, ip measured after 60 mins by LC-MS/MS analysis; assay type: ADME, organism-based; conditions: read-out: BPR
[14] = Drug level in Wistar rat brain at 3 mg/kg, ip measured after 30 mins by LC-MS/MS analysis; assay type: ADME, organism-based; conditions: read-out: Drug uptake
[15] = target: T1, 5-hydroxytryptamine receptor 2A; experiment: Antagonist activity at human 5-HT2AR expressed in HEK293 cells assessed as inhibition of serotonin-induced calcium flux after 30 mins by HTRF method; assay type: functional, cell-based
[16] = Drug level in Wistar rat plasma at 3 mg/kg, ip measured after 30 mins by LC-MS/MS analysis; assay type: ADME, organism-based
[17] = target: T2, 5-hydroxytryptamine receptor 7; experiment: Antagonist activity at human 5-HT7R expressed in CHO-K1 cells assessed as inhibition of serotonin-induced cAMP accumulation after 30 mins by chemiluminescence-based assay; assay type: functional, cell-based
[18] = Toxicity in ip dosed Sprague-Dawley rat assessed as sedation pretreated for 60 mins followed by PCP addition measured for 30 mins starting 15 min after rat reintroduction to auto-tracks; assay type: organism-based; conditions: in vivo
[19] = target: T5, 5-hydroxytryptamine receptor 1A (Homo sapiens) (UniProt P08908); experiment: Partial agonist activity at human 5-HT1AR expressed in CHO-K1 cells assessed as increase in cAMP accumulation at 10^-6 M by chemiluminescence-based assay relative to serotonin; assay type: functional, cell-based
T5 sequence (whole entry): T4 sequence (P08908 whole entry)

[20] = target: D(2) dopamine receptor (Homo sapiens) (UniProt P14416); experiment: Antagonist activity at human D2LR expressed in CHO-K1 cells assessed as inhibition of dopamine-induced calcium flux by fluorimetric method; assay type: functional, cell-based
[21] = Drug level in Wistar rat brain at 3 mg/kg, ip measured after 60 mins by LC-MS/MS analysis; assay type: ADME, organism-based; conditions: read-out: Drug uptake
[22] = target: D(3) dopamine receptor (Homo sapiens) (UniProt P35462); experiment: Antagonist activity at human D3R expressed in CHO-K1 cells assessed as inhibition of dopamine induced cAMP accumulation at 10^-6 M after 30 mins by HTRF method; assay type: functional, cell-based
[23] = Drug level in Wistar rat brain at 3 mg/kg, ip measured after 15 mins by LC-MS/MS analysis; assay type: ADME, organism-based; conditions: read-out: Drug uptake
[24] = target: T2, 5-hydroxytryptamine receptor 7; experiment: biochemical
Description: Displacement of [3H]-5-CT from human 5-HT7R expressed in HEK293 cell membranes after 1 hr at 37 degC by microbeta counting method

[25] = target: T4, 5-hydroxytryptamine receptor 1A; experiment: Partial agonist activity at human 5-HT1AR expressed in CHO-K1 cells assessed as increase in cAMP accumulation by chemiluminescence-based assay; assay type: functional, cell-based
[26] = target: D(2) dopamine receptor (Homo sapiens) (UniProt P14416); experiment: Antagonist activity at human D2LR expressed in CHO-K1 cells assessed as inhibition of dopamine-induced calcium flux at 10^-6 M by fluorimetric method; assay type: functional, cell-based
[27] = Drug level in Wistar rat plasma at 3 mg/kg, ip measured after 60 mins by LC-MS/MS analysis; assay type: ADME, organism-based
[28] = system: Rattus norvegicus; experiment: Toxicity in Wistar rat assessed as increase in prolactin level at 3 mg/kg, po after 60 mins by ELISA; assay type: organism-based; conditions: in vivo, 1 h
[29] = system: Rattus norvegicus; experiment: Effect on failure incidence during conditioned avoidance response test in Sprague-Dawley rat at 2 mg/kg, ip administered 60 mins prior to testing; assay type: ADME, organism-based; conditions: in vivo, 1 h
[30] = (§1) Toxicity in ip dosed Sprague-Dawley rat assessed as induction of catalepsy measured every 30 mins up to 240 mins by bar test; assay type: organism-based; conditions: Sprague-Dawley, in vivo
[31] = species on record: Rattus norvegicus; experiment: animal or person; conditions: Sprague-Dawley, ip, read-out: MED; remark: listed apart in the source
Description: Antipsychotic activity in ip dosed Sprague-Dawley rat assessed as reduction in PCP-induced hyper-locomotion pretreated for 60 mins followed by PCP addition measured for 30 mins starting 15 min after rat reintroduction to auto-tracks

[32] = species on record: Rattus norvegicus; experiment: animal or person; conditions: Sprague-Dawley, ip, read-out: MED; remark: listed apart in the source
Description: Reversal of PCP-induced cognitive impairment in ip dosed Sprague-Dawley rat assessed as reduction in time spent exploring novel object over familiar object pretreated for 60 mins followed by PCP addition by novel object recognition assay

[33] = target: 5-hydroxytryptamine receptor 1B (Cricetulus griseus) (UniProt P46636); experiment: Antagonist activity at 5-HT1BR in CHO cells assessed as inhibition of serotonin-induced response; assay type: functional, cell-based
[34] = target: T3, 5-hydroxytryptamine receptor 6; experiment: biochemical
Description: Displacement of [3H]-LSD from human 5-HT6R expressed in HEK293 cell membranes after 1 hr at 37 degC by microbeta counting method

[35] = target: 5-hydroxytryptamine receptor 1D (Rattus norvegicus) (UniProt P28565); experiment: Antagonist activity at rat 5-HT1DR expressed in CHO cells assessed as inhibition of serotonin-induced response by cellular dielectric spectroscopy; assay type: functional, cell-based
[36] = target: T6, Alpha-1A adrenergic receptor (Homo sapiens) (UniProt P35348); experiment: Antagonist activity at human adrenergic alpha1A receptor expressed in CHO cells assessed as inhibition of epinephrine-induced calcium flux by fluorimetric method; assay type: functional, cell-based
T6 sequence (whole entry): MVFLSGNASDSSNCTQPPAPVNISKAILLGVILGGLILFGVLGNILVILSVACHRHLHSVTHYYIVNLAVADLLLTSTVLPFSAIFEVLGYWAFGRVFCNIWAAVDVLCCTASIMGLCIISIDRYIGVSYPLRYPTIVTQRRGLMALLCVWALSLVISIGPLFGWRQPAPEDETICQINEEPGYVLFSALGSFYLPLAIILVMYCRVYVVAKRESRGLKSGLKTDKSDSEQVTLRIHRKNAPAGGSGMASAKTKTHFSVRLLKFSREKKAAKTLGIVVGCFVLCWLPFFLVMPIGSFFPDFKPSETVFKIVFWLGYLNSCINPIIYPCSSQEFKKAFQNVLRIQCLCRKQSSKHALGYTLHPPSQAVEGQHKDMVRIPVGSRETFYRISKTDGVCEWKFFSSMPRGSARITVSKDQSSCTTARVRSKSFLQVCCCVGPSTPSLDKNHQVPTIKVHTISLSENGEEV

[37] = system: Rattus norvegicus; experiment: Reversal of ketamine-induced working social withdrawal in Sprague-Dawley rat at 1 mg/kg, ip pretreated for 60 mins followed by ketamine administration; assay type: functional, organism-based
[38] = Effect on failure incidence during conditioned avoidance response test in ip dosed Sprague-Dawley rat administered 60 mins prior to testing; assay type: ADME, organism-based; conditions: in vivo
[39] = system: Rattus norvegicus; experiment: Toxicity in Sprague-Dawley rat assessed as induction of catalepsy at 30 mg/kg, ip measured every 30 mins up to 240 mins by bar test; assay type: organism-based; conditions: in vivo
[40] = system: Rattus norvegicus; experiment: Reversal of ketamine-induced working social withdrawal in Sprague-Dawley rat at 0.1 mg/kg, ip pretreated for 60 mins followed by ketamine administration; assay type: functional, organism-based
[41] = system: Rattus norvegicus; experiment: as §1; assay type: organism-based; conditions: in vivo
[42] = system: Rattus norvegicus; experiment: Reversal of PCP-induced cognitive impairment in Sprague-Dawley rat assessed as […] in time spent exploring novel object over familiar object at 0.05 mg/kg, ip pretreated for 60 mins followed by PCP addition by novel object recognition assay; assay type: functional, organism-based
[43] = target: T5, 5-hydroxytryptamine receptor 1A (Homo sapiens); conditions: CHO-K1, 10^-7 M
[44] = system: Rattus norvegicus; experiment: Effect on failure incidence during conditioned avoidance response test in Sprague-Dawley rat at 6 mg/kg, ip administered 60 mins prior to testing; assay type: ADME, organism-based; conditions: in vivo, 1 h

T2 sequence (P34969 whole entry): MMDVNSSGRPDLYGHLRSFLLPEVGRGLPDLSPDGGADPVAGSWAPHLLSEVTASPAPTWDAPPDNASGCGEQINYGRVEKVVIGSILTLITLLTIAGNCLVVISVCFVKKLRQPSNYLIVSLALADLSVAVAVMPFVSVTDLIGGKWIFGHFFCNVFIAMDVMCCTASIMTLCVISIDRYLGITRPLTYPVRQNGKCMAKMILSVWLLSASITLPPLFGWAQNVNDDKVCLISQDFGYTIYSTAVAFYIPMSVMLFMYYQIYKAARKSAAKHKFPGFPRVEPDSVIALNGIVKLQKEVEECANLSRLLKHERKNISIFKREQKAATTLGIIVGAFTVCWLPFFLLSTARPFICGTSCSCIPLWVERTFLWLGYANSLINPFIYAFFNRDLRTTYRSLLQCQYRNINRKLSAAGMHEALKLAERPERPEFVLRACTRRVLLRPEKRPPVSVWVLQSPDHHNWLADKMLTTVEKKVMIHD
T1 sequence (P28223 whole entry): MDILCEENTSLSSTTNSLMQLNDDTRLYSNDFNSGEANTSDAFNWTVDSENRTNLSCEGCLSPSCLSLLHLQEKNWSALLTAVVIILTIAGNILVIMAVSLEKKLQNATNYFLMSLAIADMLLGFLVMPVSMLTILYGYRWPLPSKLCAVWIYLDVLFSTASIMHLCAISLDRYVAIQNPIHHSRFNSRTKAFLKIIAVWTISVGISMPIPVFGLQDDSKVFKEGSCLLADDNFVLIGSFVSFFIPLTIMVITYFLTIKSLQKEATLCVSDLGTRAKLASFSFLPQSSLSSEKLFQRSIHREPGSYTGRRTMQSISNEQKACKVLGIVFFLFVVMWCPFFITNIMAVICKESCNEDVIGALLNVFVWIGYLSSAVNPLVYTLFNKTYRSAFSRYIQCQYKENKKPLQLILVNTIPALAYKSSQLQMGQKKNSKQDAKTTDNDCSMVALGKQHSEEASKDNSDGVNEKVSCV
T3 sequence (P50406 whole entry): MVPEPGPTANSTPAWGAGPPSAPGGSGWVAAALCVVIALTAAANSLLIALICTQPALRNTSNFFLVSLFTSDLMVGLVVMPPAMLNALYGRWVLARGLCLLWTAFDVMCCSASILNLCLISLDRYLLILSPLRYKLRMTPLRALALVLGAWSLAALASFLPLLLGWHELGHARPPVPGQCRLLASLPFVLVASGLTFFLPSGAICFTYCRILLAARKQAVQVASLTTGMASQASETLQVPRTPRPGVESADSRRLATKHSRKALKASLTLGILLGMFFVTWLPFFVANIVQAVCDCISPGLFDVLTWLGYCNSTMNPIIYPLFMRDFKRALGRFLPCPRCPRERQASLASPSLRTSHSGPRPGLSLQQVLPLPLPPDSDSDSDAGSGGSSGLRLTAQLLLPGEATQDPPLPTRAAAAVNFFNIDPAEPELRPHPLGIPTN
D(2) dopamine receptor (Homo sapiens), sequence (P14416 whole entry): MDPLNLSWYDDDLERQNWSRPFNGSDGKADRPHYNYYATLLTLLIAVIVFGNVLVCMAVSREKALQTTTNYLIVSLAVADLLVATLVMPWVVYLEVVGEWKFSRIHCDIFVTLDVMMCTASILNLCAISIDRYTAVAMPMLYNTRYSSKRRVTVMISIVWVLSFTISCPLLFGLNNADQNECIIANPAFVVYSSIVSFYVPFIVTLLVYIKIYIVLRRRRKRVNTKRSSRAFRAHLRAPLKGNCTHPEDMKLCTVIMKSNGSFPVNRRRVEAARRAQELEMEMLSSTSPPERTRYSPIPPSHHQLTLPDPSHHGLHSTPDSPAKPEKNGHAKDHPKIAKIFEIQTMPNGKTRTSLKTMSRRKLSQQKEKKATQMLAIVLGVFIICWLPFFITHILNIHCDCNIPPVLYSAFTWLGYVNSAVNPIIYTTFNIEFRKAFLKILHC
D(3) dopamine receptor (Homo sapiens), sequence (P35462 whole entry): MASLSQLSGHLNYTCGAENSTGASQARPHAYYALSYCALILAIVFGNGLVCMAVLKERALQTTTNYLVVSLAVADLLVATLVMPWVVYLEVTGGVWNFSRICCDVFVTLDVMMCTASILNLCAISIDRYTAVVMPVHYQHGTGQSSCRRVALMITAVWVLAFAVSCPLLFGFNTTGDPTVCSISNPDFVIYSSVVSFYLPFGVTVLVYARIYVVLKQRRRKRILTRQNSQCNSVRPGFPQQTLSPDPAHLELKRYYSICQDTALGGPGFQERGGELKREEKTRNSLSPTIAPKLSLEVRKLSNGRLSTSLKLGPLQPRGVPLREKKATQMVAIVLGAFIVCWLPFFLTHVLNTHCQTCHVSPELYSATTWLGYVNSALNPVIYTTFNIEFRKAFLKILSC
5-hydroxytryptamine receptor 1D (Rattus norvegicus), sequence (P28565 whole entry): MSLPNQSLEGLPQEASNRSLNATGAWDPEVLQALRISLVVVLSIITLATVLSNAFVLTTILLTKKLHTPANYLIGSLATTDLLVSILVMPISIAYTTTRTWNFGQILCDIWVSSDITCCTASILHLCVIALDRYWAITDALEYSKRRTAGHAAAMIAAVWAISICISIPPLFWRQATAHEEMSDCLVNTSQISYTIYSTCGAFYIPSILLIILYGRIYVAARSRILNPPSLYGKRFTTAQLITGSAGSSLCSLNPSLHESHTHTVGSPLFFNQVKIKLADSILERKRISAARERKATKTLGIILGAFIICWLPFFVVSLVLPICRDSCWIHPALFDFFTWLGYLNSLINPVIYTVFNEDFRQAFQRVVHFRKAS
5-hydroxytryptamine receptor 1B (Cricetulus griseus), sequence (P46636 whole entry): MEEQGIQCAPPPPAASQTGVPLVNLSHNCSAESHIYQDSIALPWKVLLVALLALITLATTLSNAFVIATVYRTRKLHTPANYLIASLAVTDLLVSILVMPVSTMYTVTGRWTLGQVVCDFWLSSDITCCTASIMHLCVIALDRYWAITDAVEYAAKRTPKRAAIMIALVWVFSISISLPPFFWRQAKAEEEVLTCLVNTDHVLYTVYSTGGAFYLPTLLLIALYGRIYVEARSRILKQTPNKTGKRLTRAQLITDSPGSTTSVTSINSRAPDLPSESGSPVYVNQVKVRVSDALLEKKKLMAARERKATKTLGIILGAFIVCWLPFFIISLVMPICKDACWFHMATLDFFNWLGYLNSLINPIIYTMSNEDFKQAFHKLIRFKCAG

Cc1nc2n(c(=O)c1CCN1CCC(c3noc4cc(F)ccc34)CC1)CCCC2 [RISPERIDONE]
Activity [1]: Non-Toxic
minimal effective dose [2]: 0.1 mg/kg
minimal effective dose [3]: 0.1 mg/kg

O=S(=O)(c1cncc2ccccc12)N1CCC[C@@H]1CCN1CCN(c2cccc3sccc23)CC1
Ki [4]: 26 nM
inhibition [5]: 100%
inhibition [6]: 73%
concentration at 0.25 h [7]: 0.564 µM
Kp at 0.25 h [8]: 0.47
Ki [9]: 24 nM
Kp at 0.5 h [10]: 0.48
inhibition [11]: 100%
Activity [12]: inactive
Kp at 1 h [13]: 1.24
concentration at 0.5 h [14]: 0.242 µM
Kb [15]: 9.5 nM
concentration at 0.5 h [16]: 0.518 µM
Kb [17]: 0.47 nM
MTD at 0.5 h [18]: 3 mg/kg
Activity [19]: 36%
Kb [20]: 0.74 nM
concentration at 1 h [21]: 0.114 µM
inhibition [22]: 78%
concentration at 0.25 h [23]: 0.266 µM
Ki [24]: 4 nM
EC50 [25]: 11 nM
inhibition [26]: 100%
concentration at 1 h [27]: 0.0967 µM

Cc1cc2c(s1)Nc1ccccc1N=C2N1CCN(C)CC1 [OLANZAPINE]
Activity [28]: Toxic
Activity [29]: Non-Toxic
MTD [30]: 40 mg/kg
minimal effective dose [31]: 1.88 mg/kg
minimal effective dose [32]: 1.25 mg/kg
MTD at 0.5 h [18]: 1.25 mg/kg
minimal effective dose [3]: 1 mg/kg

COc1ccc(NC(=O)c2ccc(-c3ccc(-c4noc(C)n4)cc3C)cc2)cc1N1CCN(C)CC1
Kb [33]: 0.065 nM

O=S(=O)(c1cncc2ccccc12)N1CCC[C@@H]1CCN1CCN(c2nsc3ccccc23)CC1
Ki [4]: 10 nM
concentration at 0.25 h [7]: 0.472 µM
Kp at 0.25 h [8]: 0.48
Ki [9]: 14 nM
Kp at 0.5 h [10]: 0.65
Activity [12]: inactive
Kp at 1 h [13]: 1
concentration at 0.5 h [14]: 0.242 µM
concentration at 0.5 h [16]: 0.376 µM
Ki [34]: 40 nM
MTD at 0.5 h [18]: 2 mg/kg
concentration at 1 h [21]: 0.123 µM
concentration at 0.25 h [23]: 0.218 µM
Ki [24]: 3 nM
concentration at 1 h [27]: 0.125 µM

CSc1ccc2c(c1)C(N1CCN(C)CC1)Cc1ccccc1S2 (configuration not stated)
Kb [35]: 14 nM

COc1cccc(OC)c1OCCNCC1COc2ccccc2O1 (configuration not stated)
Kb [36]: 0.24 nM

O=C1Cc2cc(CCN3CCN(c4nsc5ccccc45)CC3)c(Cl)cc2N1 [ZIPRASIDONE]
Ki [9]: 2 nM
Activity [37]: inactive
Activity [28]: Toxic
Ki [34]: 20 nM
minimal effective dose [31]: 1 mg/kg
minimal effective dose [32]: 1 mg/kg
MTD at 0.5 h [18]: 3 mg/kg
minimal effective dose [3]: 1 mg/kg
MTD at 1 h [38]: 2 mg/kg
Activity [39]: Non-Toxic

O=C(CCCN1CCC(O)(c2ccc(Cl)cc2)CC1)c1ccc(F)cc1 [HALOPERIDOL]
Activity [40]: inactive
MTD [30]: 0.2 mg/kg
Activity [41]: Dose-dependent effect
minimal effective dose [31]: 0.6 mg/kg
MTD at 0.5 h [18]: 0.06 mg/kg
Activity [42]: inactive
minimal effective dose [3]: 0.1 mg/kg
MTD at 1 h [38]: 0.2 mg/kg

O=C(CCCN1CCC2(CC1)C(=O)NCN2c1ccccc1)c1ccc(F)cc1
inhibition [43]: 100%

CN1CCN(C2=Nc3cc(Cl)ccc3Nc3ccccc32)CC1 [CLOZAPINE]
Activity [37]: inactive
Activity [44]: Non-Toxic
minimal effective dose [31]: 1 mg/kg
minimal effective dose [32]: 1 mg/kg
MTD at 0.5 h [18]: 3 mg/kg
minimal effective dose [3]: 1 mg/kg
